From ChEMBL document CHEMBL5126609, “Design, Synthesis, and Pharmacological Evaluation of Benzimidazolo-thiazoles as Potent CXCR3 Antagonists with Therapeutic Potential in Autoimmune Diseases: Discovery of ACT-672125” (J Med Chem, 2022)

How the values were obtained:
[1] = Toxicity in cynomolgus monkey assessed as increase in indirect bilirubin level at 300 mg/kg/day measured for 7 days; type: organism-based, Macaca fascicularis; settings: in vivo, time 7 day
in vivo [2] = settings: Balb/c, mouse, po, 10 mg/kg
[3] = Toxicity in rat plasma assessed as increase in indirect bilirubin level at 300 mg/kg/day measured for 2 weeks; type: organism-based; settings: in vivo, 336 h
[4] = Mutagenicity in Salmonella typhimurium by Ames test; type: toxicity; settings: salmonella enterica subsp. enterica serovar typhimurium
[5] = Toxicity in cynomolgus monkey assessed as increase in direct bilirubin level at 300 mg/kg/day measured for 7 days; type: organism-based, Macaca fascicularis; settings: in vivo, time 7 day
[6] = target: T1, C-X-C chemokine receptor type 3 (Homo sapiens, UniProt P49682); assay: Antagonist activity at human recombinant CXCR3 expressed in CHO-K1 cells measured after 10 mins in presence of CXCL10 by FLIPR analysis
T1 sequence (P49682 whole entry): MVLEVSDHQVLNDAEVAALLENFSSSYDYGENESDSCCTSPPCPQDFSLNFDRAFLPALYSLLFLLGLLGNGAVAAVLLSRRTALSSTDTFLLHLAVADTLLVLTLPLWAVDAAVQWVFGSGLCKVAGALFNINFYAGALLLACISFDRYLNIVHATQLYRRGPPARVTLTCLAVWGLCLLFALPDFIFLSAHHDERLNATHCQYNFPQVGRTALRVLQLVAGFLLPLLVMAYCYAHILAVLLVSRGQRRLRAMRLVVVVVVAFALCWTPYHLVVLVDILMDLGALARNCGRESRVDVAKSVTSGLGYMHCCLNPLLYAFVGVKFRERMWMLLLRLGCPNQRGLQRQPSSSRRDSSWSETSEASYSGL

[7] = target: T1, C-X-C chemokine receptor type 3; assay: Antagonist activity at human recombinant CXCR3 in human venous blood assessed as receptor internalization measured for 30 mins in presence of CXCL10 by flow cytometric analysis
[8] = target: cGMP-specific 3',5'-cyclic phosphodiesterase (Homo sapiens, UniProt O76074); assay: Antagonist activity at PDE5 (unknown origin)
in vitro [9] = settings: rat, liver microsomes
[10] = Drug concentration in LPS-induced C57BL/6 mouse plasma at 200 mg/kg, po bid; type: ADME, organism-based; settings: in vivo
in vivo [11] = settings: Wistar, rat, po, 2 mg/kg
[12] = Unbound fraction in human liver; type: ADME, tissue-based
[13] = Toxicity in rat plasma assessed as increase in direct bilirubin level at 300 mg/kg/day measured for 2 weeks; type: organism-based; settings: in vivo, 336 h
[14] = Volume of distribution at steady state in Wistar rat at 2 mg/kg, po; settings: in vivo
[15] = Clearance in rat relative to liver blood flow; type: ADME; settings: in vivo
[16] = Toxicity in cynomolgus monkey assessed as increase in total bilirubin level at 300 mg/kg/day measured for 7 days; type: organism-based, Macaca fascicularis; settings: in vivo, time 7 day
[17] = Oral bioavailability in dog; type: ADME, organism-based, Canis lupus familiaris; settings: in vivo
[18] = Clearance in dog relative to liver blood flow; type: ADME, Canis lupus familiaris; settings: in vivo
in vivo [19] = settings: Wistar, rat, po, 2 mg/kg; remark: listed apart in the source
[20] = Volume of distribution in rat; type: ADME; settings: in vivo
[21] = Toxicity in rat plasma assessed as increase in total bilirubin level at 300 mg/kg/day measured for 2 weeks; type: organism-based; settings: in vivo, 336 h
in vitro [22] = settings: human, liver microsomes
[23] = Drug concentration in LPS-induced C57BL/6 mouse plasma at 100 mg/kg, po bid; type: ADME, organism-based; settings: in vivo
[24] = Cardiotoxicity in guinea pig assessed as QTc prolongation at 10 mg/kg, iv measured for 20 mins; type: toxicity, organism-based, Cavia porcellus; settings: in vivo
[25] = Cmax in rat plasma at 300 mg/kg/day measured on day 14; type: ADME, organism-based; set-up: dose 300 mg/kg/day
[26] = Unbound fraction in rat liver; type: ADME, tissue-based
Hepatocyte = assay: Cytotoxicity in human hepatocyte measured up to 100 uM; type: toxicity, cell-based; settings: hepatocytes
[27] = Unbound fraction in dog liver; type: ADME, tissue-based, Canis lupus familiaris
[28] = Half life in Wistar rat at 0.5 mg/kg, iv; settings: in vivo
[29] = Clearance in Wistar rat at 2 mg/kg, po; settings: in vivo
[30] = Unbound fraction in rat plasma by equilibrium based LC-MS/MS analysis
[31] = Unbound fraction in mouse plasma by equilibrium based LC-MS/MS analysis
[32] = Free maximum concentration of drug in cynomolgus monkey at 300 mg/kg/day measured on day 7; type: ADME, organism-based, Macaca fascicularis; settings: in vivo
in vivo [33] = settings: Balb/c, mouse, po, 10 mg/kg; remark: listed apart in the source
in vivo [34] = settings: Balb/c, mouse, po, 10 mg/kg; remark: listed apart in the source
[35] = Toxicity in […] assessed as histopathological changes in liver at 300 mg/kg/day measured for 2 weeks; type: organism-based; settings: in vivo, 336 h
[36] = target: 5-hydroxytryptamine receptor 2A (Homo sapiens, UniProt P28223); assay: Antagonist activity at 5-HT2A receptor (unknown origin)
[37] = Oral bioavailability in rat; type: ADME, organism-based; settings: in vivo
in vitro [38] = settings: mouse, liver microsomes
[39] = Volume of distribution in dog; type: ADME, Canis lupus familiaris; settings: in vivo
in vivo [40] = settings: Wistar, rat, po, 2 mg/kg; remark: listed apart in the source
[41] = Drug concentration in LPS-induced C57BL/6 mouse plasma at 30 mg/kg, po bid; type: ADME, organism-based; settings: in vivo

5-hydroxytryptamine receptor 2A, sequence (P28223 whole entry): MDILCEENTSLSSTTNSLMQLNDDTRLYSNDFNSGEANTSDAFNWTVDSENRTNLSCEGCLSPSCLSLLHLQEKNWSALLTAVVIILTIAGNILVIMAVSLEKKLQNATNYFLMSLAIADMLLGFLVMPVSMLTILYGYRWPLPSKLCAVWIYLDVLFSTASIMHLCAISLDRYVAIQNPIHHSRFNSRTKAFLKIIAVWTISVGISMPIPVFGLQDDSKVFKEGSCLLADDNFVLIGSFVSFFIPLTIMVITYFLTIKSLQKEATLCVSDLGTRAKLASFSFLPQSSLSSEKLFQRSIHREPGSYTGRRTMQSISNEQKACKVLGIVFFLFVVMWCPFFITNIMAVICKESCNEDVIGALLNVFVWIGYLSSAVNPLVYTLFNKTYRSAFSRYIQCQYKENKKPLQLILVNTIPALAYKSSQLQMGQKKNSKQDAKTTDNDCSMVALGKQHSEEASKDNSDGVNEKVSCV

Cc1nc(C)n(CC(=O)N2CCN(c3sc(C(F)(F)F)nc3-c3nc4ccc(-c5noc(C)n5)cc4[nH]3)C[C@H]2C)n1
Activity [1]: Toxic | AUC (in vivo [2]): 6600 ng·h/mL | Activity [3]: Toxic | Activity [4]: Non-Toxic | Activity [5]: Toxic | IC50 [6]: 0.0025 µM | IC50 [7]: 0.239 µM | IC50 [8]: 8.7 µM | microsomal CLint at 0.25 h, 1 µM (in vitro [9]): 47 µL/min/mg | Cp [10]: 14630 ng/mL | AUC (in vivo [11]): 1160 ng·h/mL | fraction unbound [12]: 0.038 | Activity [13]: Toxic | Vdss [14]: 1 L/kg | CLH [15]: 10% | Activity [16]: Toxic | bioavailability [17]: 57% | CLH [18]: 11% | bioavailability (in vivo [19]): 0.5% | Vd [20]: 1.1 L/kg | Activity [21]: Toxic | microsomal CLint at 0.25 h, 1 µM (in vitro [22]): < 10 µL/min/mg | Cp [23]: 250 ng/mL | Activity [24]: Non-Toxic | Cmax [25]: 3.5 µM | fraction unbound [26]: 0.029 | Activity (Hepatocyte): Non-Toxic | fraction unbound [27]: 0.106 | half-life [28]: 72 min | CL/F [29]: 14 mL/min/kg | fraction unbound [30]: 0.029 | fraction unbound [31]: 0.024 | fCmax [32]: 1.4 µM | Cmax (in vivo [33]): 3140 ng/mL | Tmax (in vivo [34]): 15 min | Activity [35]: Non-Toxic | IC50 [36]: 16 µM | bioavailability [37]: 48% | microsomal CLint at 0.25 h, 1 µM (in vitro [38]): 21 µL/min/mg | Vd [39]: 2.2 L/kg | Tmax (in vivo [40]): 15 min | Cp [41]: 30 ng/mL
